Reference: BigSolDB 2.1

CN1CCOC(c2ccccc2)c2ccccc2C1.Cl (stereo not drawn)
solubility (mole fraction)
Conditions	in acetone	in ethanol	in isobutanol	in isopropanol	in methanol	in n-butanol	in n-propanol	in water
273.15 K	7.2e-05	0.00136	0.000415	0.000136	0.00515	0.000205	0.000291	0.000951
278.15 K	8.7e-05	0.00163	0.000524	0.000167	0.00566	0.000245	0.000328	0.00106
283.15 K	0.000107	0.00198	0.000635	0.000206	0.00632	0.000287	0.000387	0.00124
288.15 K	0.000128	0.00247	0.000797	0.000251	0.00692	0.000369	0.000495	0.00144
293.15 K	0.000151	0.0029	0.000955	0.00032	0.00764	0.000463	0.000652	0.00167
298.15 K	0.000182	0.00337	0.00116	0.000407	0.00856	0.000605	0.000836	0.00199
303.15 K	0.000215	0.00402	0.00144	0.000494	0.00951	0.000776	0.00106	0.00234
308.15 K	0.000265	0.00473	0.00175	0.000608	0.0105	0.000986	0.00134	0.00273
313.15 K	0.000312	0.00559	0.00214	0.000752	0.0115	0.00125	0.0017	0.00317
318.15 K	0.000373	0.00654	0.0026	0.000935	0.0128	0.00159	0.00213	0.00369
323.15 K	0.000445	0.00795	0.00321	0.00114	0.0143	0.00198	0.00267	0.00426
